The source of these data is ChEMBL document CHEMBL1201862, “PubChem BioAssay data set” (2004).

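These data come from cells grown in 96-well plates and exposed to compound for 48 hours at five concentrations. GI50: concentration for 50% inhibition of growth.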 Active and inactive are the calls of the source. Cut-off read from the data, not from the text of the source: active = GI50 up to about 1.1 µM and inactive = higher.

What all share (assay): DTP human tumour cell line panel, 48 h
The test system of assay [1] is MDA-MB-231.
The subject of assay [2] is Hs-578T.
Assay [3] has as its system UO-31.
The test system of assay [4] is OVCAR-3.
For assay [5], the system named is MCF7.
Assay [6] deals with SF-295.
For assay [7], the system named is RPMI-8226.
Assay [8] concerns ACHN.
The subject of assay [9] is A498.
Assay [10] relates to HOP-62.
In assay [11] the test system is OVCAR-5.
Assay [12] has as its system UACC-257.
In assay [13] the test system is HCT-116.
In assay [14] the test system is IGROV-1.
Assay [15] has as its system COLO 205.
Assay [16] has as its system SN12C.
Assay [17] deals with NCI/ADR-RES.
In assay [18] the test system is RXF 393.
Assay [19] deals with CAKI-1.

One may read the GI50 as the concentration at which growth is held to half of that of the control. For `Cc1c(C)c(C)c(CC2(C)CSC2)c(CC2(C)CSC2)c1C`, the GI50 in assay [1], in assay [2], in assay [3], in [4], in assay [5] and in [6] was > 100 µM (inactive) each time. Moreover, the GI50 in assay [7], in [8], in assay [9], in [10], in assay [11] and in assay [12] was > 100 µM (inactive) throughout. The GI50 in [13], in assay [14], in [15], in assay [16], in assay [17] and in assay [18] was > 100 µM (inactive) throughout.
Consider `c1ccc2c(c1)nc1n2CCNC1`, for which the GI50 in assay [1] was > 100 µM (inactive); in [2] it was > 100 µM (inactive); in [19], > 100 µM (inactive); in assay [3], > 100 µM (inactive); in assay [4], 63 µM (inactive); in assay [5] it was > 100 µM (inactive). Besides, the GI50 in assay [6], in [7], in assay [8], in assay [9], in [10] and in [11] was > 100 µM (inactive) in each case. Moreover, the GI50 in assay [12], in assay [13], in assay [14], in assay [15], in assay [16] and in [17] was > 100 µM (inactive) in each case. Further, in assay [18], the GI50 is > 100 µM (inactive).
On to `C[n+]1c(-c2ccc(/C=N\Nc3ccnc(N/N=C/c4ccc(-c5cn6ccsc6[n+]5C)cc4)n3)cc2)cn2ccsc21`, for which the GI50 in [1] was 15.2 µM (inactive); in [2], 84.1 µM (inactive); in assay [19], 22.7 µM (inactive); in assay [3] it was 20 µM (inactive); in assay [4], > 100 µM (inactive); in assay [5], 34.8 µM (inactive). Also, the GI50 was 4.65 µM (inactive) in [7]; 32.5 µM (inactive) in assay [8]; 17.1 µM (inactive) in [9]; 18.1 µM (inactive) in assay [10]; 16.7 µM (inactive) in assay [11]; 17.7 µM (inactive) in assay [12]. The GI50 in assay [14] was 11.2 µM (inactive); in assay [15] it was 27.6 µM (inactive); in [16], 27.1 µM (inactive); in assay [17], 51.2 µM (inactive); in assay [18] it was 18.3 µM (inactive).
Regarding `Cc1coc2c1CC1(C)C(CCC(O)C1C)C2` (configuration not stated), the GI50 in assay [1], in [2], in assay [19], in assay [4], in [5] and in [6] was > 100 µM (inactive) in each case. Besides, the GI50 in assay [7], in [8], in assay [9], in assay [10], in assay [11] and in assay [12] was > 100 µM (inactive) each time. Also, the GI50 in assay [13], in assay [14], in [15], in [16], in [17] and in assay [18] was > 100 µM (inactive) each time.
Regarding `COc1ccc(-c2nc3cc(C(F)(F)F)ccc3n2CC2CCCN3CCCCC23)cc1` (configuration not stated), the GI50 is 14.3 µM (inactive) in [1]; 15.5 µM (inactive) in [2]; 21 µM (inactive) in assay [19]; 17.1 µM (inactive) in [3]; 16.1 µM (inactive) in assay [4]; 13.2 µM (inactive) in assay [5]. The GI50 in assay [6] is 19.2 µM (inactive); in assay [7], 14.2 µM (inactive); in [8], 15.6 µM (inactive); in assay [9], 13.4 µM (inactive); in assay [10], 18.7 µM (inactive); in assay [11], 27.1 µM (inactive). For the same compound, the GI50 in [12] is 13.8 µM (inactive); in [13] it was 18.1 µM (inactive); in assay [14], 13.9 µM (inactive); in [17], 14.1 µM (inactive); in assay [18] it was 16.6 µM (inactive).
With `O=C1/C(=C/c2cccc3ccccc23)CCc2ccc([N+](=O)[O-])cc21`, the GI50 was 28.5 µM (inactive) in assay [1]; 9.57 µM (inactive) in assay [2]; 24.8 µM (inactive) in assay [19]; 33.7 µM (inactive) in assay [3]; 3.22 µM (inactive) in [4]; 4.8 µM (inactive) in assay [5]. The GI50 in assay [6] is 11.9 µM (inactive); in [7], 11.8 µM (inactive); in assay [8], 26.8 µM (inactive); in assay [9], 19.3 µM (inactive); in [10], 28.2 µM (inactive); in [11], > 100 µM (inactive). Moreover, the GI50 in assay [13] is 14.5 µM (inactive); in assay [14], 31.4 µM (inactive); in assay [15] it was 34 µM (inactive); in [16] it was 28.4 µM (inactive); in assay [17] it was 16.3 µM (inactive); in [18] it was 23.4 µM (inactive).
As to `C[C@]12[C@@H]3CC[C@H]1[C@@H](OC(=O)Nc1cc([N+](=O)[O-])cc([N+](=O)[O-])c1)C(=O)N2CC3`, the GI50 in assay [1], in assay [2], in [19], in assay [3], in assay [5] and in assay [6] was > 100 µM (inactive) throughout. For the same compound, the GI50 in assay [7], in assay [8], in [9], in [10], in assay [11] and in [12] was > 100 µM (inactive) each time. Further, the GI50 in assay [13], in [14], in assay [15], in [16], in assay [17] and in assay [18] was > 100 µM (inactive) throughout.
Turning to `O=C(O)/C(=C/c1ccccc1)c1ccccc1`, the GI50 in assay [1], in assay [2], in assay [19], in [3], in assay [4] and in assay [5] was > 100 µM (inactive) in each case. Further, the GI50 in assay [6], in [7], in [8], in assay [9], in assay [10] and in assay [11] was > 100 µM (inactive) each time. Besides, the GI50 in [12], in [13], in assay [14], in assay [16], in [17] and in assay [18] was > 100 µM (inactive) throughout.
In the case of `Cc1nc2ccc(S(=O)(=O)O)cc2c(=O)n1-c1ccc(C(=O)NN2C(=O)C(Cl)C2c2cccs2)cc1` (configuration not stated), the GI50 in [1] was 22.9 µM (inactive); in [2], > 100 µM (inactive); in assay [19], > 100 µM (inactive); in assay [3], > 100 µM (inactive); in assay [4], > 100 µM (inactive); in assay [5], > 100 µM (inactive). Besides, the GI50 was > 100 µM (inactive) in [6]; > 100 µM (inactive) in assay [7]; > 100 µM (inactive) in assay [8]; > 100 µM (inactive) in assay [9]; 23.1 µM (inactive) in assay [10]; > 100 µM (inactive) in [11]. Besides, the GI50 in [12], in assay [13], in assay [15], in [16], in [17] and in assay [18] was > 100 µM (inactive) throughout.
Consider `Cc1nnc(N)nc1/C=C\c1ccc(Cl)cc1Cl`, for which the GI50 in assay [1] is 87.5 µM (inactive); in assay [2] it was 29.2 µM (inactive); in assay [19] it was > 100 µM (inactive); in assay [3], 54.2 µM (inactive); in [5] it was 32.8 µM (inactive); in [6], 23.4 µM (inactive). Also, the GI50 in [7] was 45.4 µM (inactive); in assay [8] it was 36.4 µM (inactive); in assay [9], > 100 µM (inactive); in [10], 20.3 µM (inactive); in assay [11], 42.5 µM (inactive); in assay [12], 54.6 µM (inactive). For the same compound, the GI50 in assay [13] was 26.9 µM (inactive); in [14] it was 16.3 µM (inactive); in [15], 20.9 µM (inactive); in assay [16], 61.5 µM (inactive); in assay [17], > 100 µM (inactive); in assay [18], 39.7 µM (inactive).
`O=C1C(c2c(O)[nH]c3ccc(Cl)cc23)=Nc2ccccc21`: the GI50 in assay [1] is 2.51 µM (inactive); in assay [2] it was 3.43 µM (inactive); in [19] it was 3.83 µM (inactive); in [4], 3.66 µM (inactive); in assay [5], 12.2 µM (inactive); in [6], 10.4 µM (inactive). Also, the GI50 in assay [7] is 5.09 µM (inactive); in [8], 3.86 µM (inactive); in assay [9], 5.01 µM (inactive); in assay [10], 5.58 µM (inactive); in assay [11] it was 8.11 µM (inactive); in assay [12], > 53.5 µM (inactive). Besides, the GI50 is 1.98 µM (inactive) in assay [13]; 0.352 µM (active) in assay [14]; 20 µM (inactive) in assay [15]; 17 µM (inactive) in [16]; 7.91 µM (inactive) in assay [17]; 2.49 µM (inactive) in [18].
